Where two headings read alike, the source gives them in different places.
Legend:
[1] = test system: blackgrass; assay: Test B postemergence herbicide test; assay type: in vivo, Alopecurus myosuroides; details: Alopecurus myosuroides, post-emergence, 336 h, postemergence, visual rating, scale 0 (no effect) to 100 (complete control), read-out: Blackgrass plant response rating
Procedure, shortened: (§1)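 Read-out: visual comparison with controls, scored 0 to 100, where 100 means complete control and 0 no effect. Formulated chemicals were applied postemergence to plants 2–18 cm tall (1- to 4-leaf), or to flooded-paddy plants at the 2-leaf stage, then held 13 to 15 days under glass.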

[2] = test system: morningglory; assay: Test B pre-/postemergence herbicide test; assay type: in vivo, Ipomoea coccinea; details: Ipomoea, 336 h; for pest or weed control at 125 g/ha: 125 g ai/ha; for pest or weed control at 500 g/ha: 500 g ai/ha
Procedure, shortened: (§2)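 Pre: seeds sown, then sprayed. Post: 1–4-leaf plants (2–18 cm) sprayed at the same time. Paddy: flooded, treated at 2-leaf stage. Formulation: non-phytotoxic solvent with surfactant. Greenhouse 13–15 days; visual 0–100 score relative to controls.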

[3] = test system: cocklebur; assay: Test B pre-/postemergence herbicide test; assay type: in vivo, Xanthium strumarium; details: Xanthium strumarium; for pest or weed control at 125 g/ha: 125 g ai/ha; for pest or weed control at 500 g/ha: 500 g ai/ha
Procedure, shortened: as §2

[4] = test system: small flower umbrella sedge; assay: Test B flooded paddy test; assay type: in vivo, Cyperus difformis; details: Cyperus difformis, 336 h, 1000 g ai/ha, visual rating, scale 0 to 100 (0 no effect, 100 complete control), 13 to 15 days, read-out: Sedge, Umbrella plant response rating
Procedure, shortened: as §1

[5] = test system: Surinam grass; assay: Test B pre-/postemergence herbicide test; assay type: in vivo, Urochloa decumbens; details: Urochloa decumbens; for pest or weed control at 125 g/ha: 125 g ai/ha; for pest or weed control at 500 g/ha: 500 g ai/ha
Procedure, shortened: (§3)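 Visual rating, 0 (no effect) to 100 (complete control), versus untreated controls after 13–15 d in greenhouse. Pre- and postemergence applications (postemergence plants 2–18 cm, 1–4 leaves); flooded paddy arm at 2-leaf stage. Compounds in non-phytotoxic solvent plus surfactant.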

[6] = test system: wild oat; assay: Test B postemergence herbicide test; assay type: in vivo, Avena fatua; details: Avena fatua, post-emergence, 336 h, postemergence, visual rating, scale 0 (no effect) to 100 (complete control), read-out: Oat, Wild plant response rating
Procedure, shortened: (§4)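 Scale 0–100: zero equals no visible effect, 100 complete control, judged by eye relative to controls. Timing: 13 to 15 days in greenhouse post-treatment. Growth stage at spraying: two leaves (paddy) or one to four leaves, 2–18 cm (postemergence).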

[7] = test system: velvetleaf; assay: Test B pre-/postemergence herbicide test; assay type: in vivo, Abutilon theophrasti; details: Abutilon theophrasti, 336 h; for pest or weed control at 125 g/ha: 125 g ai/ha; for pest or weed control at 500 g/ha: 500 g ai/ha
Procedure, shortened: as §3

[8] = test system: ducksalad; assay: Test B flooded paddy test; assay type: in vivo, Heteranthera limosa; details: Heteranthera limosa, 336 h, 1000 g ai/ha, visual rating, scale 0 to 100 (0 no effect, 100 complete control), 13 to 15 days, read-out: Ducksalad plant response rating
Procedure, shortened: as §1

[9] = test system: lambsquarters; assay: Test B pre-/postemergence herbicide test; assay type: in vivo, Chenopodium album; details: Chenopodium album, 336 h; for pest or weed control at 125 g/ha: 125 g ai/ha; for pest or weed control at 500 g/ha: 500 g ai/ha
Procedure, shortened: as §3

[10] = test system: rice; assay: Test B flooded paddy test; assay type: in vivo, Oryza sativa; details: Oryza sativa, 336 h, 1000 g ai/ha, visual rating, scale 0 to 100 (0 no effect, 100 complete control), 13 to 15 days, read-out: Rice plant response rating
Procedure, shortened: as §1

[11] = test system: giant foxtail; assay: Test B pre-/postemergence herbicide test; assay type: in vivo, Setaria faberi; details: Setaria faberi, 336 h; for pest or weed control at 125 g/ha: 125 g ai/ha; for pest or weed control at 500 g/ha: 500 g ai/ha
Procedure, shortened: as §3

[12] = test system: pigweed; assay: Test B pre-/postemergence herbicide test; assay type: in vivo, Amaranthus retroflexus; details: Amaranthus retroflexus, 336 h; for pest or weed control at 125 g/ha: 125 g ai/ha; for pest or weed control at 500 g/ha: 500 g ai/ha
Procedure, shortened: as §3

[13] = test system: barnyardgrass; assay: Test B flooded paddy test; assay type: in vivo, Echinochloa crus-galli; details: Echinochloa crus-galli, 336 h, 1000 g ai/ha, visual rating, scale 0 to 100 (0 no effect, 100 complete control), 13 to 15 days, read-out: Barnyardgrass plant response rating
Procedure, shortened: as §1

[14] = test system: wheat; assay: Test B postemergence herbicide test; assay type: in vivo, Triticum aestivum; details: Triticum aestivum, post-emergence, 336 h, postemergence, visual rating, scale 0 (no effect) to 100 (complete control), read-out: Wheat plant response rating
Procedure, shortened: as §4

[15] = test system: corn; assay: Test B pre-/postemergence herbicide test; assay type: in vivo, Zea mays; details: Zea mays; for plant injury at 125 g/ha: 125 g ai/ha
Procedure, shortened: as §3

[16] = post-emergence, postemergence, visual rating, scale 0 (no effect) to 100 (complete control), read-out: Morningglory plant response rating
[17] = post-emergence, postemergence, visual rating, scale 0 (no effect) to 100 (complete control), read-out: Cocklebur plant response rating
[18] = post-emergence, postemergence, visual rating, scale 0 (no effect) to 100 (complete control), read-out: Surinam Grass plant response rating
[19] = post-emergence, postemergence, visual rating, scale 0 (no effect) to 100 (complete control), read-out: Velvetleaf plant response rating
[20] = post-emergence, postemergence, visual rating, scale 0 (no effect) to 100 (complete control), read-out: Lambsquarters plant response rating
[21] = post-emergence, postemergence, visual rating, scale 0 (no effect) to 100 (complete control), read-out: Foxtail, Giant plant response rating
[22] = post-emergence, postemergence, visual rating, scale 0 (no effect) to 100 (complete control), read-out: Pigweed plant response rating

SMILES: CCNC(=O)c1cccc(NC(=O)c2nn(C(C)(C)C)cc2Br)c1 [Compound 221, 4-bromo-1-(1,1-dimethylethyl)-N-[3-[(ethylamino)carbonyl]phenyl]-1H-pyrazole-3-carboxamide]
- pest or weed control at 125 g/ha ([1]; 125 g ai/ha): 0%
- pest or weed control at 500 g/ha ([1]; 500 g ai/ha): 0%
- pest or weed control at 125 g/ha [2, 16]: 0%
- pest or weed control at 500 g/ha [2, 16]: 0%
- pest or weed control at 125 g/ha ([2]; pre-emergence, 0 = no effect, 100 = complete control, read-out: Morningglory plant response rating (0 to 100 scale)): 0%
- pest or weed control at 500 g/ha ([2]; pre-emergence, visual rating, 0 = no effect, 100 = complete control, read-out: Plant response rating, Morningglory): 0%
- pest or weed control at 125 g/ha [3, 17]: 0%
- pest or weed control at 500 g/ha [3, 17]: 20%
- pest or weed control at 125 g/ha ([3]; pre-emergence, 0 = no effect, 100 = complete control, read-out: Cocklebur plant response rating (0 to 100 scale)): 0%
- pest or weed control at 500 g/ha ([3]; pre-emergence, visual rating, 0 = no effect, 100 = complete control, read-out: Plant response rating, Cocklebur): 0%
- pest or weed control at 1000 g/ha [4]: 80%
- pest or weed control at 125 g/ha [5, 18]: 0%
- pest or weed control at 500 g/ha [5, 18]: 10%
- pest or weed control at 125 g/ha ([5]; pre-emergence, 0 = no effect, 100 = complete control, read-out: Surinam Grass plant response rating (0 to 100 scale)): 0%
- pest or weed control at 500 g/ha ([5]; pre-emergence, visual rating, 0 = no effect, 100 = complete control, read-out: Plant response rating, Surinam Grass): 30%
- pest or weed control at 125 g/ha ([6]; 125 g ai/ha): 0%
- pest or weed control at 500 g/ha ([6]; 500 g ai/ha): 10%
- pest or weed control at 125 g/ha [7, 19]: 0%
- pest or weed control at 500 g/ha [7, 19]: 0%
- pest or weed control at 125 g/ha ([7]; pre-emergence, 0 = no effect, 100 = complete control, read-out: Velvetleaf plant response rating (0 to 100 scale)): 0%
- pest or weed control at 500 g/ha ([7]; pre-emergence, visual rating, 0 = no effect, 100 = complete control, read-out: Plant response rating, Velvetleaf): 50%
- pest or weed control at 1000 g/ha [8]: 50%
- pest or weed control at 125 g/ha [9, 20]: 0%
- pest or weed control at 500 g/ha [9, 20]: 20%
- pest or weed control at 125 g/ha ([9]; pre-emergence, 0 = no effect, 100 = complete control, read-out: Lambsquarters plant response rating (0 to 100 scale)): 20%
- pest or weed control at 500 g/ha ([9]; pre-emergence, visual rating, 0 = no effect, 100 = complete control, read-out: Plant response rating, Lambsquarters): 100%
- plant injury at 1000 g/ha [10]: 20%
- pest or weed control at 125 g/ha [11, 21]: 10%
- pest or weed control at 500 g/ha [11, 21]: 10%
- pest or weed control at 125 g/ha ([11]; pre-emergence, 0 = no effect, 100 = complete control, read-out: Foxtail, Giant plant response rating (0 to 100 scale)): 0%
- pest or weed control at 500 g/ha ([11]; pre-emergence, visual rating, 0 = no effect, 100 = complete control, read-out: Plant response rating, Foxtail, Giant): 70%
- pest or weed control at 125 g/ha [12, 22]: 10%
- pest or weed control at 500 g/ha [12, 22]: 20%
- pest or weed control at 125 g/ha ([12]; pre-emergence, 0 = no effect, 100 = complete control, read-out: Pigweed plant response rating (0 to 100 scale)): 50%
- pest or weed control at 500 g/ha ([12]; pre-emergence, visual rating, 0 = no effect, 100 = complete control, read-out: Plant response rating, Pigweed): 100%
- pest or weed control at 1000 g/ha [13]: 40%
- plant injury at 125 g/ha ([14]; 125 g ai/ha): 0%
- plant injury at 500 g/ha ([14]; 500 g ai/ha): 10%
- plant injury at 125 g/ha ([15]; post-emergence, postemergence, visual rating, scale 0 (no effect) to 100 (complete control), read-out: Corn plant response rating): 10%
- plant injury at 500 g/ha ([15]; post-emergence, postemergence, 500 g ai/ha, visual rating, scale 0 (no effect) to 100 (complete control), read-out: Corn plant response rating): 10%
- plant injury at 125 g/ha ([15]; pre-emergence, 0 = no effect, 100 = complete control, read-out: Corn plant response rating (0 to 100 scale)): 0%
- Corn plant response rating (crop injury, 0 = no effect, 100 = complete kill) at 500 g/ha ([15]; pre-emergence, 500 g ai/ha, visual rating, 0 = no effect, 100 = complete control): 0%
